SMILES strings stand for the structures.

From publication PMC5651845, “A New Generation of Arachidonic Acid Analogues as Potential Neurological Agent Targeting Cytosolic Phospholipase A2” (Scientific Reports, 2017) come the findings set out here.

One data set relates to HEK293T cells. The data set is described as follows: MTS cell proliferation assay on HEK293T cells. It counts as cell-based, human. The note with it: 10 μM, 48 h and 72 h, vs vehicle control. The protocol:
To explore whether the inhibitors are cytotoxic, MTS assay were conducted on BV-2 cells, a murine microglial cell line derived from post-natal mouse cerebella, and HEK293T cells that are derived from human embryonic kidney. Both cell types were treated with 10 μM of 1a, 2g and 2i for 48 h and 72 h (Fig. 3A,B). Dimethyl sulfoxide (DMSO) vehicle control was also included as the compounds were dissolved in DMSO.
Cells were plated on a 96-wells plate and grown for 24 h to a density of 8000 cells per well for both HEK293T and BV-2 cells. Cells were cultured at 37 °C under a 5% CO2 environment in 100 μL of culture medium. Thereafter, the compound of interest dissolved in culture medium at a concentration of 10 μM was replaced into each well. DMSO was added as vehicle in the control group. 3 biological replicates were performed. The plates were then incubated at 37 °C with 5% CO2 for 48 h and 72 h. At each individual time point, 20 μL of CellTiter 96® AQueous One Solution (MTS reagent) was added into each well and re-incubated at 37 °C with 5% CO2 without light for 3 h. Colorimetric readings were taken using a Varioskan plate reader at 490 nm and analyzed. Three independent biological repeats with four technical replicates were performed.

In data set [1] the test system is iNOS expression in BV-2 cells. The data set can be described thus: iNOS protein expression (western blot) in LPS-stimulated BV-2 cells. It counts as cell-based, murine. The settings on record: 2 μg/mL LPS, 14 h. The source says:
It is well-established that reactive oxygen species (ROS) and nitric oxide (NO), produced during microglia activation, contribute to inflammatory response and cytotoxic damage to the surrounding neurons and neighbouring cells. Recent studies have shown that BV-2 microglial cell could serve as an in vitro model to mimic such neuroinflammatory states when stimulated with lipopolysaccharide (LPS)[49]. LPS activates BV-2 cells by triggering a cascade of inflammatory events which includes the production of NO. This event is characterized by the generation of the biomarker, inducible nitric oxide synthase (iNOS), as well as ROS. Chuang et al.[50] have also shown that cPLA2 is a major contributor in this pathway and inhibiting this enzyme reduces the production of the neurotoxic mediators and provide neuroprotective effects. Therefore to investigate the ability of 2i in inhibiting cPLA2 in a neuroinflammatory model, BV-2 cells were treated with LPS (2 μg/mL), incubated for different time points, collected and lysed for protein extraction. […] The cPLA2 level was also determined and found to be largely constant throughout the entire activation process with a slight drop at the 24 h timepoint (Fig. 3F). Next, 2i (1, 10 and 20 μM) were incubated together with LPS in the BV-2 cells for 14 h (Fig. 4A,B). […]

Consider `CCCCC/C=C\C/C=C\C/C=C\C/C=C\CCCCC(=O)Nc1cccc(C(=O)O)c1` [2i], for which, in the data set with HEK293T cells, the “cytotoxicity (MTS) on HEK293T cells” value is reported as “no significant toxic effects”. In addition, in data set [1] (20 µM), the “reduction of LPS-induced iNOS expression” value worked out at 50%. Moreover, the “iNOS level, concentration dependence” value in data set [1] (1–20 μM) is reported as “dose-dependent decrease in the iNOS level”.
